Experimental data as given in US11697646B2, “Triazole N-linked carbamoyl cyclohexyl acids as LPA antagonists” (BRISTOL-MYERS SQUIBB COMPANY, priority 2017, dated 2023).
Read-outs that look alike come from different tables or passages of the source.

How the values were obtained:
[1] = target: T1, human LPA1 (Homo sapiens, UniProt Q92633); assay: LPA1 functional antagonist assay (calcium flux); assay type: cell-based; details: read-out: hLPA1 IC50
T1 construct: expressed in transfected cells; host or cells: Chinese hamster ovary (CHO) cells
Protocol: The effectiveness of compounds of the present invention as LPA1 inhibitors can be determined in an LPA1 functional antagonist assay as follows:
The cells were then equilibrated to room temperature for 30 minutes before the assay. […] IC50 values were determined by fitting data to a 4-parameter logistic equation (GraphPad Prism, San Diego Calif.).

[2] = system: plasma histamine; assay: LPA challenge with plasma histamine evaluation (acute in vivo histamine assay); details: 1 mg/kg dose
Protocol: LPA Challenge with Plasma Histamine Evaluation.
Compound is dosed orally p.o. 2 hours to CD-1 female mice prior to the LPA challenge. The mice are then dosed via tail vein (IV) with 0.15 mL of LPA in 0.1% BSA/PBS (2 μg/μL). Exactly 2 minutes following the LPA challenge, the mice are euthanized by decapitation and the trunk blood is collected. These samples are collectively centrifuged and individual 75 μL samples are frozen at −20° C. until the time of the histamine assay.
The plasma histamine analysis was run by standard EIA (Enzyme Immunoassay) methods. Plasma samples were thawed and diluted 1:30 in 0.1% BSA in PBS. The EIA protocol for histamine analysis as outlined by the manufacturer was followed (Histamine EIA, Oxford Biomedical Research, EA #31).
The LPA used in the assay is formulated as follows: LPA (1-oleoyl-2-hydroxy-sn-glycero-3-phosphate (sodium salt), 857130P, Avanti Polar Lipids) is prepared in 0.1% BSA/PBS for total concentration of 2 μg/μL, 13 mg of LPA is weighed and 6.5 mL 0.1% BSA added, vortexed and sonicated for −1 hour until a clear solution is achieved.

[3] = system: IPF patients; details: 26-week clinical trial in IPF patients; cited from earlier work
[4] = system: human foetal lung fibroblasts; details: induced by BAL obtained from IPF patients; cited from earlier work
[5] = system: UUO mice; details: cited from earlier work
[6] = system: mouse epithelial renal cell line, MCT; details: LPA treatment of MCT cells, co-treatment; cited from earlier work
[7] = system: pancreatic cancer cell lines; details: in response to LPA and peritoneal fluid (ascites) from pancreatic cancer patients; cited from earlier work
[8] = system: highly peritoneal metastatic pancreatic cancer cell line; details: LPA-induced and ascites-induced; cited from earlier work
[9] = system: nerve-injured mice; details: pretreatment; cited from earlier work
[10] = CHO cells overexpressing human LPA1, calcium flux induced by 10 nM LPA
[11] = human LPA1 functional antagonist assay

T1 sequence (Q92633 whole entry): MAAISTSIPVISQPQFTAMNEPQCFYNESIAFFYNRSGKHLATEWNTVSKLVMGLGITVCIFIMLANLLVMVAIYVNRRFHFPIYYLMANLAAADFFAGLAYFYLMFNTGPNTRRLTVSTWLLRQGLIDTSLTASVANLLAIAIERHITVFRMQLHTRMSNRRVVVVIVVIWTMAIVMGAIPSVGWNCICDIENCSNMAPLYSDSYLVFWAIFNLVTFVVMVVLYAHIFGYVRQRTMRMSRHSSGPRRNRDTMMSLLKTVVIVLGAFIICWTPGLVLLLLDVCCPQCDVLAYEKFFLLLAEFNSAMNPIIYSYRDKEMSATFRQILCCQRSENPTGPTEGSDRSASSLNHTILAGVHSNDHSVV

Row | SMILES | IC50 [1, 10] [nM] | other results
1 | Cc1nc(-c2nnn(C)c2CNC(=O)OCc2ccccc2)ccc1O[C@H]1CCC[C@H](C(=O)O)C1 [Example 34, (1S,3S)-3-((6-(5-((((benzyloxy)carbonyl)amino)methyl)-1-methyl-1H-1,2,3-triazol-4-yl)-2-methylpyridin-3-yl)oxy)cyclohexane-1-carboxylic acid] | 9 | acute in vivo histamine assay in CD-1 mice: % histamine [2]: −96%
2 | Cc1noc(-c2ccc(-c3ccc(C4(C(=O)O)CC4)cc3)cc2)c1NC(=O)O[C@H](C)c1ccccc1 [BMS-986020] |  | rate of FVC (forced vital capacity) decline [3]: significantly reduce
3 | Cc1noc(-c2ccc(CSCCC(=O)O)cc2)c1NC(=O)OC(C)c1ccccc1Cl (stereo not drawn) [Ki16425] |  | chemotaxis of human foetal lung fibroblasts [4]: blocked; development of renal fibrosis [5]: closely resembled the profile of LPA1 (−/−) mice; induction of CTGF expression [6]: almost completely suppressed; in vitro migration [7]: effectively blocked; invasion activity [8]: blocked
4 | C[C@@H](N)[C@H]1CC[C@H](C(=O)Nc2ccncc2)CC1 [Example Y-27632] |  | allodynia and hyperalgesia [9]: completely abolished
5 | Cc1nc(-c2nnn(C)c2NC(=O)NCc2ccccc2)ccc1O[C@H]1CCC[C@H](C(=O)O)C1 [Example 135, (1S,3S)-3-((6-(5-(3-benzylureido)-1-methyl-1H-1,2,3-triazol-4-yl)-2-methylpyridin-3-yl)oxy)cyclohexane-1-carboxylic acid] | 329 | 
6 | Cc1nc(-c2nnn(C)c2CNC(=O)C(C)(C)Oc2ccccc2)ccc1O[C@H]1CCC[C@H](C(=O)O)C1 [Example 234, (1S,3S)-3-((2-methyl-6-(1-methyl-5-((2-methyl-2-phenoxypropanamido)methyl)-1H-1,2,3-triazol-4-yl)pyridin-3-yl)oxy)cyclohexane-1-carboxylic acid] | 392 | 
7 | CCCCNC(=O)NCc1c(-c2ccc(O[C@H]3CCC[C@H](C(=O)O)C3)c(C)n2)nnn1C [Example 124, (1S,3S)-3-((6-(5-((3-butylureido)methyl)-1-methyl-1H-1,2,3-triazol-4-yl)-2-methylpyridin-3-yl)oxy)cyclohexane-1-carboxylic acid] | 434 | 
8 | Cc1nc(-c2nnn(C)c2CNC(=O)O[C@H](C)C2CC2)ccc1O[C@H]1CCC[C@H](C(=O)O)C1 [Example 167, (1S,3S)-3-((6-(5-(((((R)-1-cyclo-propylethoxy)carbonyl)amino)methyl)-1-methyl-1H-1,2,3-triazol-4-yl)-2-methylpyridin-3-yl)oxy)cyclohexane-1-carboxylic acid] |  | IC50 [1, 11]: 427 nM
9 | CCCCCN(C)C(=O)NCc1c(-c2ccc(O[C@H]3CCC[C@H](C(=O)O)C3)c(C)n2)nnn1C [Example 111, (1S,3S)-3-((2-methyl-6-(1-methyl-5-((3-methyl-3-pentylureido)methyl)-1H-1,2,3-triazol-4-yl)pyridin-3-yl)oxy)cyclohexanecarboxylic acid] | 226 | 
10 | Cc1nc(-c2nnn(C)c2NC(=O)OCCCF)ccc1O[C@H]1CCC[C@H](C(=O)O)C1 [Example 144, (1S,3S)-3-((6-(5-(((3-fluoropropoxy)carbonyl)amino)-1-methyl-1H-1,2,3-triazol-4-yl)-2-methylpyridin-3-yl)oxy)cyclohexane-1-carboxylic acid] | 254 | 
11 | Cc1nc(-c2nnn(C)c2CNC(=O)OCc2ccccc2)ccc1O[C@@H]1CCC[C@@](F)(C(=O)O)C1 (racemic) [Example 209, (±)-Cis-3-((6-(5-((((benzyloxy)carbonyl)amino)methyl)-1-methyl-1H-1,2,3-triazol-4-yl)-2-methylpyridin-3-yl)oxy)-1-fluorocyclohexanecarboxylic acid] | 12 | 
12 | Cc1nc(-c2nnn(C)c2CNC(=O)NCC2CC(F)(F)C2)ccc1O[C@H]1CCC[C@H](C(=O)O)C1 [Example 123, (1S,3S)-3-((6-(5-((3-((3,3-difluorocyclo-butyl)methyl)ureido)methyl)-1-methyl-1H-1,2,3-triazol-4-yl)-2-methylpyridin-3-yl)oxy)cyclohexane-1-carboxylic acid] | 929 | 
13 | CC(C)COC(=O)NCc1c(-c2ccc(O[C@H]3CCC[C@H](C(=O)O)C3)c(C(F)F)n2)nnn1C [Example 99, (1S,3S)-3-((2-(difluoromethyl)-6-(5-(((isobutoxycarbonyl)amino)methyl)-1-methyl-1H-1,2,3-triazol-4-yl)pyridin-3-yl)oxy)cyclohexane-1-carboxylic acid] | 71 | 
14 | Cc1nc(-c2nnn(C)c2CNC(=O)OCC2CC2C)ccc1O[C@H]1CCC[C@H](C(=O)O)C1 (stereo partly drawn) [Example 179, (1S,3S)-3((2-methyl-6-(1-methyl-5-(((((2-methylcyclopropyl)methoxy)carbonyl)amino)methyl)-1H-1,2,3-triazol-4-yl)pyridin-3-yl)oxy)cyclohexane-1-carboxylic acid] |  | IC50 [1, 11]: 46 nM
15 | Cc1nc(-c2nnn(C)c2CCNC(=O)OCc2ccccc2Cl)ccc1O[C@H]1CCC[C@H](C(=O)O)C1 [Example 103, (1S,3S)-3-((6-(5-(2-((((2-chloro-benzyl)oxy)carbonyl)amino)ethyl)-1-methyl-1H-1,2,3-triazol-4-yl)-2-methylpyridin-3-yl)oxy)cyclohexane-1-carboxylic acid] | 595 | 
16 | CCCCOC(=O)Nc1c(-c2nc(C)c(O[C@H]3CCC[C@H](C(=O)O)C3)cc2F)nnn1C [Example 217] | 72 | 
